Measured values from patent US10662156B2, “Guanidine derivative and medical use thereof” (Toray Industries, Inc., priority 2016, dated 2020).

Assays:
[1] = test system: oxazolone-induced atopic dermatitis mouse models; assay: Suppressive effect on auricular hypertrophy in oxazolone-induced atopic dermatitis mouse model; type: in vivo, BALB/c male mice; conditions: 30 mg/kg orally twice a day
Description: (§1) The guanidine derivative (I) or the pharmacologically acceptable salt thereof was evaluated for its exertion of a therapeutic effect on atopic dermatitis, one type of allergic disease, in an in vivo experimental system using oxazolone-induced atopic dermatitis mouse models in accordance with the method described in the literature (Plos One, Vol. 8, No. 7, e6614). Specifically, the evaluation was conducted by verifying the suppressive effect of the compound on auricular hypertrophy by using, as an index, the thickness of the auricle increased with the progression of symptoms in oxazolone-induced atopic dermatitis models.
Seven-week-old BALB/c male mice (Charles River Laboratories Japan, Inc.) were preliminarily bred and then used at the age of 8 weeks. […]
The thickness of the auricle before oxazolone administration (before induction) at the date of induction and the thickness of the auricle at post-induction day 28 were measured using a digital micrometer (Mitsutoyo Corp.), and the change therebetween (the thickness of the auricle at post-induction day 28—the thickness of the auricle before induction) was used as an index for drug efficacy evaluation. […]

[2] = test system: imiquimod-induced psoriasis mouse models; assay: Suppressive effect on auricular hypertrophy in imiquimod-induced psoriasis mouse model; type: in vivo, BALB/c male mice; conditions: for change in the thickness of the auricle (increase): post-induction days 4 to 7, post-induction day 8 vs before induction, vehicle group 198 μm; for change in the thickness of the auricle compared to the vehicle administration group (in words): P<0.05
Description: as §1, with “psoriasis,” for “atopic dermatitis,”, “autoimmune” for “allergic”, “imiquimod-induced psoriasis” for “oxazolone-induced atopic dermatitis”, “(The Journal of Dermatological Science, 2014,” for “(Plos One,”, “76,” for “8,”, “2, p. 96-103).” for “7, e6614).”
Seven-week-old BALB/c male mice (Charles River Laboratories Japan, Inc.) were preliminarily bred and then used at the age of 8 weeks. To induce psoriasis-like symptoms, 5 mg/ear of Beselna Cream 5% was applied (imiquimod dose: 0.25 mg/body/day) to both the ears of each mouse once a day for 8 days from the date of initial administration of imiquimod (hereinafter, referred to as post-induction day 0) to post-induction day 7. A dosing vehicle was prepared by adding Tween 20 to a 0.5% (w/v) aqueous methylcellulose solution to attain a final concentration of 0.025% (v/v). A test compound was suspended in the dosing vehicle to prepare a drug solution. The drug solution was orally administered (dosing volume: 10 mL/kg) twice a day (a.m. and p.m.) for 4 days from post-induction days 4 to 7. The test compound used was the compound of Example 2, and groups given the compound of Example 2 were designated as Example 2 compound administration groups. A group given only the dosing vehicle in the same way as above was established as a vehicle administration group.
The thickness of the auricle before imiquimod administration (before induction) at the date of induction and the thickness of the auricle at post-induction day 8 were measured using a digital micrometer (Mitsutoyo Corp.), and the change therebetween (the thickness of the auricle at post-induction day 8—the thickness of the auricle before induction) was used as an index for drug efficacy evaluation. Statistical analysis was carried out using statistical analysis software EXSAS (ver. 7.6). As a result of studying homoscedasticity among the groups by the Bartlett's test, the variance was homogeneous. Therefore, the parametric Dunnett test (two-tailed) was carried out. As for the drug dependence of the drug efficacy of the compound of Example 2 on auricular hypertrophy, as a result of studying homoscedasticity between the vehicle group and each compound administration group by the Bartlett's test, the variance was homogeneous. Therefore, the Williams test (two-tailed) was carried out. P<0.05 was confirmed as significant difference.
The ordinate of the drawing depicts the change in the thickness of the auricle (μm), and the abscissa depicts each administration group. The term “Compound of Example 2” depicts the Example 2 compound administration groups.

## Cl.N/C(=N\S(=O)(=O)c1ccccc1)NCc1cnc(-c2ccc(Cl)cc2)c(-c2ccc(Cl)cc2)c1 [Compound of Example 2, N-(amino(((5,6-bis(4-chlorophenyl)pyridin-3-yl)methyl)amino)methylene)benzenesulfonamide Hydrochloride]
[1]; post-induction days 21 to 27, post-induction day 28 vs before induction, vehicle group 515 μm
  change in the thickness of the auricle (increase): 419 μm
[1]; t test, P<0.05
  change in the thickness of the auricle compared to the vehicle administration group (in words): statistically significantly decreased
[2]; 7.5 mg/kg orally twice a day
  change in the thickness of the auricle (increase): 179 μm
[2]; 15 mg/kg orally twice a day
  change in the thickness of the auricle (increase): 131 μm
  change in the thickness of the auricle compared to the vehicle administration group (in words): significantly decreased
[2]; 30 mg/kg orally twice a day
  change in the thickness of the auricle (increase): 118 μm
  change in the thickness of the auricle compared to the vehicle administration group (in words): significantly decreased
